According to US11919886B2, “4,9-dioxo-4,9-dihydronaphtho[2,3-B]furan-3-carboxamide derivatives and uses thereof for treating proliferative diseases and infectious diseases” (Academia Sinica, priority 2016, dated 2024):

Experiments:
[1] = system: H1975 cell line; test: Sulforhodamine B colorimetric (SRB) assay, H1975; details: Homo sapiens, NCI-H1975, 72 h, H1975 cell line, SRB assay, 72 hours
[2] = system: Escherichia coli; test: Bacterial growth by Alamar Blue in Muller-Hinton broth; format: cell-based; details: 16-24 hours, read-out: % of the activities in the presence of ~10 μM compound, Escherichia coli
Description: (§1) Compound 1 and its analogues shown in Table 6 below were tested for their activities on cancer cells and bacterial cells using assays described herein. H1975, MDA-MB231, and MCF7 cells were incubated in the presence of the compounds in cell growth medium containing 10% fetal bovine serum for two days in a mammalian cell culture incubatoe. Cell viability were monitored by using Cell-TiterGlo. Staphylococcus aureus and Escherichia coli were incubated in the presence of the compounds in Muller-Hinton broth for 16-24 hours in a 37° C. incubator. Bacterial growth was monitored by using Alamar Blue (Invitrogen).

[3] = system: Staphylococcus aureus; test: as above; format: cell-based; details: ~10 μM, 16-24 hours, Alamar Blue, read-out: % of the activities in the presence of ~10 μM compound, Staphylococcus aureus
Description: as §1

[4] = system: Breast Cancer Cells (MDA-MB231); test: Cell viability by Cell-TiterGlo; format: cell-based; details: Homo sapiens, MDA-MB-231, 48 h, two days, read-out: % of the activities in the presence of ~10 μM compound, Breast Cancer Cells (MDA-MB231)
Description: as §1

[5] = system: Lung Cancer Cells (H1975); test: Cell viability by Cell-TiterGlo; format: cell-based; details: Homo sapiens, NCI-H1975, 48 h, two days, read-out: % of the activities in the presence of ~10 μM compound, Lung Cancer Cells (H1975)
Description: as §1

[6] = system: Breast Cancer Cells (MCF); test: Cell viability by Cell-TiterGlo; format: cell-based; details: Homo sapiens, 48 h, two days, read-out: % of the activities in the presence of ~10 μM compound, Breast Cancer Cells (MCF)
Description: as §1

IC50 [1]	melting point	SMILES	activity at 10 µM [2]	activity at 10 µM [3]	viability at 10 µM [4]	viability at 10 µM [5]	viability at 10 µM [6]
0.28 µM	–	Cc1oc2c(c1C(=O)NCCn1ccnc1)C(=O)c1ccccc1C2=O [Compound 5, N-(2-(1H-imidazol-1-yl)ethyl)-2-methyl-4,9-dioxo-4,9-dihydronaphtho [2,3-b]furan-3-carboxamide]	–	–	–	–	–
0.826 µM	–	O=C1c2ccccc2C(=O)c2c1oc(-c1ccccc1)c2C(=O)NCCCn1ccnc1 [Compound 9, N-(3-(1H-imidazol-1-yl)propyl)-4,9-dioxo-2-phenyl-4,9-dihydronaphtho[2,3-b]furan-3-carboxamide]	–	–	–	–	–
0.26 µM	–	CC(C)c1oc2c(c1C(=O)NCCCn1ccnc1)C(=O)c1ccccc1C2=O [Compound 10, N-(3-(1H-imidazol-1-yl)propyl)-2-isopropyl-4,9-dioxo-4,9-dihydronaphtho[2,3-b]furan-3-carboxamide]	–	–	–	–	–
0.288 µM	–	CCc1oc2c(c1C(=O)NCCCn1ccnc1)C(=O)c1ccccc1C2=O [Compound 11, N-(3-(1H-imidazol-1-yl)propyl)-2-ethyl-4,9-dioxo-4,9-dihydronaphtho[2,3-b]furan-3-carboxamide]	–	–	–	–	–
0.918 µM	143.5 to 150.7 °C	Cc1oc2c(c1C(=O)NCCCn1cccc1)C(=O)c1ccccc1C2=O [Compound 12, N-(3-(1H-pyrrol-1-yl)propyl)-2-methyl-4,9-dioxo-4,9-dihydronaphtho[2,3-b]furan-3-carboxamide]	–	–	–	–	–
0.25 µM	158.6 to 164.1 °C	Cc1oc2c(c1C(=O)NCCCCn1ccnc1)C(=O)c1ccccc1C2=O [Compound 13, N-(4-(1H-imidazol-1-yl)butyl)-2-methyl-4,9-dioxo-4,9-dihydronaphtho[2,3-b]furan-3-carboxamide]	–	–	–	–	–
> 10 µM	151.4 to 152.7 °C	Cc1oc2c(c1C(=O)NCCCCc1ccccc1)C(=O)c1ccccc1C2=O [Compound 17, 2-Methyl-4,9-dioxo-N-(4-phenylbutyl)-4,9-dihydronaphtho[2,3-b]furan-3-carboxamide]	–	–	–	–	–
0.024 µM	–	Cc1oc2c(c1C(=O)NCCCN1CCCC1)C(=O)c1ccccc1C2=O [Compound 18, 2-Methyl-4,9-dioxo-N-(3-(pyrrolidin-1-yl)propyl)-4,9-dihydronaphtho[2,3-b]furan-3-carboxamide]	–	–	–	–	–
0.08 µM	–	Cc1oc2c(c1C(=O)NCCCN1CCOCC1)C(=O)c1ccccc1C2=O [Compound 20, 2-Methyl-N-(3-morpholinopropyl)-4,9-dioxo-4,9-dihydronaphtho[2,3-b]furan-3-carboxamide]	–	–	–	–	–
8.73 µM	–	Cc1[nH]c2c(c1C(=O)NCCCn1ccnc1)C(=O)c1ccccc1C2=O [Compound 45, N-(3-(1H-imidazol-1-yl)propyl)-2-methyl-4,9-dioxo-4,9-dihydro-1H-benzo[f]indole-3-carboxamide]	–	–	–	–	–
–	–	O=C(NCCN1CCOCC1)c1coc2c1C(=O)c1ccccc1C2=O [Compound 00053891400]	> 100%	> 100%	12.2%	4%	6.1%
–	–	Cc1oc2c(c1C(=O)N1CCC(C)CC1)C(=O)c1ccccc1C2=O [Compound 00054506228]	> 100%	65.4%	54.4%	4.6%	13.6%
–	–	COCCNC(=O)c1c(C)oc2c1C(=O)c1ccccc1C2=O [Compound 00054811255]	> 100%	> 100%	13.4%	4.2%	6.5%
–	–	Cc1oc2c(c1C(=O)NC(C)(C)C)C(=O)c1ccccc1C2=O [Compound 00055422098]	> 100%	> 100%	69.8%	3.7%	35%
–	–	CCCCNC(=O)c1c(C)oc2c1C(=O)c1ccccc1C2=O [Compound 00055422996]	> 100%	> 100%	20.9%	4.3%	6.9%
–	–	Cc1oc2c(c1C(=O)NCCC(C)C)C(=O)c1ccccc1C2=O [Compound 00055727872]	> 100%	> 100%	72%	4.2%	44.3%
–	–	Cc1oc2c(c1C(=O)N1CCOCC1)C(=O)c1ccccc1C2=O [Compound 00056034607]	> 100%	75.8%	61.2%	4.4%	12.9%
